The results in this text go back to patent publication US4877619A, “Liposomal vesicles for intraperitoneal administration of therapeutic agents” (priority 1987, dated 1989).

The conditions of series [1]: rat, in vivo, ip. As to the method:
At the times indicated in the table, the animals were anesthetized, exsanguinated and the peritoneal cavities lavaged three time with 20 ml phosphate-buffered saline. The lavage fluid was pooled and centrifuged at low speed. "Peritoneal fluid" refers to fluid lavaged and pooled from the peritoneal cavity and contains small sized vesicles. "Peritoneal pellet" refers to the pelleted portion of the lavaged peritoneal fluid, and contains cellular matter (predominately peritoneal macrophage) and large vesicles. The remaining tissues were collected, washed, blotted, weighed and distributed into tubes for gamma counting.

Series [2] is classed as physicochemical. As to the method:
3.9 ml of the Na-IBF solution is injected into each flask containing lipid film. The flasks are vortex-stirred for 40 to 60 minutes in a 65° C. water bath under nitrogen. (The nitrogen purge is first passed through a 0.22 micron filter.) To the contents of each flask is added sterile, pyrogen-free phosphate buffered saline, and the flasks are centrifuged for 6 to 10 minutes at 15,000 rpm. This washing procedure is repeated for a total of five times to remove unencapsulated Na-IBF. The contents of the flasks are then combined and PBS (5 mM PO4^3- in 0.15 N NaCl) is added to a total of 32 ml. The liposome suspension thus produced comprises ILDVs of about 1 micron or larger in size suspended in the PBS.

Where two headings read alike, the source gives them in different places.

Take `O=C([O-])CN(CCN(CC(=O)[O-])CC(=O)[O-])CC(=O)[O-].[111In+3]` [^111 In-EDTA, Indium-III chelated to ethylenediamine tetracetic acid]: in series [1], the “Clearance after intraperitoneal injection” value was “rapid clearance from the peritoneal cavity and from the whole body”. Moreover, the Feces is 4.6 % Inj. Dose in series [1] (1 h), “.02 % Inj. Dose” in series [1] (2 h), 7.6 % Inj. Dose in series [1] (6 h) and 16.83 % Inj. Dose in series [1] (24 h). Also, the TOTAL was 32.58 % Inj. Dose in series [1] (1 h), 76.73 % Inj. Dose in series [1] (2 h), 71.27 % Inj. Dose in series [1] (6 h) and 33.91 % Inj. Dose in series [1] (24 h). The Urine in series [1] (1 h) was 19 % Inj. Dose; in series [1] (2 h), 73 % Inj. Dose; in series [1] (6 h), 60.2 % Inj. Dose; in series [1] (24 h) it was 14.05 % Inj. Dose.

Turning to Sodium Ibuprofenate, in series [2], the “Storage stability of liposome suspension” value is listed as “storage-stable for a period of several months”.
